Experimental data reported in the kinase profiling compilation of Christmann-Franck et al. (2016).

Key:
Assay in all cases: KINOMEscan competition binding
Settings in all cases: compound 10.0 µM
ABL2 (human) = ABL2 (human) (UniProt P42684)
ACVR2A (human) = ACVR2A (human) (UniProt P27037)
AKT1 (human) = AKT1 (human) (UniProt P31749)
AKT3 (human) = AKT3 (human) (UniProt Q9Y243)
AXL (human) = AXL (human) (UniProt P30530)
BMPR1B (human) = BMPR1B (human) (UniProt O00238)
CAMK2A (human) = CAMK2A (human) (UniProt Q9UQM7)
CDC2L2 (human) = CDC2L2 (human) (UniProt Q9UQ88)
CDK14 (human) = CDK14 (human) (UniProt O94921)
CLK3 (human) = CLK3 (human) (UniProt P49761)
CSNK1E (human) = CSNK1E (human) (UniProt P49674)
DMPK (human) = DMPK (human) (UniProt Q09013)
DYRK1B (human) = DYRK1B (human) (UniProt Q9Y463)
EPHB1 (human) = EPHB1 (human) (UniProt P54762)
EPHB4 (human) = EPHB4 (human) (UniProt P54760)
ERBB4 (human) = ERBB4 (human) (UniProt Q15303)
FGFR1 (human) = FGFR1 (human) (UniProt P11362)
GSK3A (human) = GSK3A (human) (UniProt P49840)
MAP2K6 (human) = MAP2K6 (human) (UniProt P52564)
MAP4K5 (human) = MAP4K5 (human) (UniProt Q9Y4K4)
MAPK1 (human) = MAPK1 (human) (UniProt P28482)
MELK (human) = MELK (human) (UniProt Q14680)
MYLK3 (human) = MYLK3 (human) (UniProt Q32MK0)
NIM1 (human) = NIM1 (human) (UniProt Q8IY84)
PAK1 (human) = PAK1 (human) (UniProt Q13153)
PAK3 (human) = PAK3 (human) (UniProt O75914)
PIK3C2G (human) = PIK3C2G (human) (UniProt O75747)
PKMYT1 (human) = PKMYT1 (human) (UniProt Q99640)
RAF1 (human) = RAF1 (human) (UniProt P04049)
[1] = test system: RET (human), P07949 [V804L]
RIPK4 (human) = RIPK4 (human) (UniProt P57078)
SRC (human) = SRC (human) (UniProt P12931)
SRPK3 (human) = SRPK3 (human) (UniProt Q9UPE1)
STK11 (human) = STK11 (human) (UniProt Q15831)
STK24 (human) = STK24 (human) (UniProt Q9Y6E0)
STK25 (human) = STK25 (human) (UniProt O00506)
TNIK (human) = TNIK (human) (UniProt Q9UKE5)
ULK2 (human) = ULK2 (human) (UniProt Q8IYT8)
WEE2 (human) = WEE2 (human) (UniProt P0C1S8)
DSTYK (human) = DSTYK (human) (UniProt Q6XUX3)
NEK4 (human) = NEK4 (human) (UniProt P51957)

Sequence of RIPK4 (human) (P57078 whole entry, looked up): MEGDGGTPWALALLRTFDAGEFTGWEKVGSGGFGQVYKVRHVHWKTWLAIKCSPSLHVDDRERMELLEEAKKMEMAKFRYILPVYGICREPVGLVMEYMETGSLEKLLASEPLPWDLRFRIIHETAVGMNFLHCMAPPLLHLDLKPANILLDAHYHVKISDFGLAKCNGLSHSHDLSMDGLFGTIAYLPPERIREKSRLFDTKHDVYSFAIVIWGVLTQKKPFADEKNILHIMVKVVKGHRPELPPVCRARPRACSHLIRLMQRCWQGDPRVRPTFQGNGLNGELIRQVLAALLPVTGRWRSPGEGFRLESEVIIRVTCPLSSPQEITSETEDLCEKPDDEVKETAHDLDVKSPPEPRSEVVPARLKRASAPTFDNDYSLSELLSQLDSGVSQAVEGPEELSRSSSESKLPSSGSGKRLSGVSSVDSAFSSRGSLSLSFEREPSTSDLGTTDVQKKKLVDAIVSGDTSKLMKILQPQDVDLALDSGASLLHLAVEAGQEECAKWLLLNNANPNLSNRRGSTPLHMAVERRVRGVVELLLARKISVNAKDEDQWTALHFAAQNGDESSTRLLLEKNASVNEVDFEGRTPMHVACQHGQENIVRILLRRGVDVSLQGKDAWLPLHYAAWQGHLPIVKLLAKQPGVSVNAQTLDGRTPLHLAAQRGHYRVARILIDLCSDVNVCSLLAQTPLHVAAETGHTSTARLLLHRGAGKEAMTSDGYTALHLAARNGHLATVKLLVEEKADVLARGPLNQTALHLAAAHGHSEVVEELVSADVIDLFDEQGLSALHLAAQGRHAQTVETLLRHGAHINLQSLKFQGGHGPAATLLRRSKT
Sequence of FGFR1 (human) (P11362 whole entry, looked up): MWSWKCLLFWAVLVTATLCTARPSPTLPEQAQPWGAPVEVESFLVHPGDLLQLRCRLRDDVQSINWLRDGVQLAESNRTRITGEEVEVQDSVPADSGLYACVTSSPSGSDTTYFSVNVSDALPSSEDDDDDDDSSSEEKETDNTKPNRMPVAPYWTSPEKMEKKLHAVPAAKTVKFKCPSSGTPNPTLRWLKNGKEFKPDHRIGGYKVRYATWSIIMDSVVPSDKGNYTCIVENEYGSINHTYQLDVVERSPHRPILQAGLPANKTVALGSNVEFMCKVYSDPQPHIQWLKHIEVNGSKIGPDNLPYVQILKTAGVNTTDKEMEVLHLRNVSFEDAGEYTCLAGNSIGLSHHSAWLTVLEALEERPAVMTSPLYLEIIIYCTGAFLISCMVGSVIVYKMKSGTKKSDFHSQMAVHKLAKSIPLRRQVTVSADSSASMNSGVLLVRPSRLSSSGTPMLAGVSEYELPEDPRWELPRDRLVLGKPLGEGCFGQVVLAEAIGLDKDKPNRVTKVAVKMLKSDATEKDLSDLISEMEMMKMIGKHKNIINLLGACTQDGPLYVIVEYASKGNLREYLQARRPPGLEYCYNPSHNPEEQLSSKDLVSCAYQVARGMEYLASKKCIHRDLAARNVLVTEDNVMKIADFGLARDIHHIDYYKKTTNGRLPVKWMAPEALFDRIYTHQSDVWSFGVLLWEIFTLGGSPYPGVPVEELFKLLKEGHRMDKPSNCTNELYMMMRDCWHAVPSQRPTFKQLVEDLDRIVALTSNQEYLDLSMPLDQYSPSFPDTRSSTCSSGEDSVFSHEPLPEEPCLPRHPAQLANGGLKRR
Sequence of STK11 (human) (Q15831 whole entry, looked up): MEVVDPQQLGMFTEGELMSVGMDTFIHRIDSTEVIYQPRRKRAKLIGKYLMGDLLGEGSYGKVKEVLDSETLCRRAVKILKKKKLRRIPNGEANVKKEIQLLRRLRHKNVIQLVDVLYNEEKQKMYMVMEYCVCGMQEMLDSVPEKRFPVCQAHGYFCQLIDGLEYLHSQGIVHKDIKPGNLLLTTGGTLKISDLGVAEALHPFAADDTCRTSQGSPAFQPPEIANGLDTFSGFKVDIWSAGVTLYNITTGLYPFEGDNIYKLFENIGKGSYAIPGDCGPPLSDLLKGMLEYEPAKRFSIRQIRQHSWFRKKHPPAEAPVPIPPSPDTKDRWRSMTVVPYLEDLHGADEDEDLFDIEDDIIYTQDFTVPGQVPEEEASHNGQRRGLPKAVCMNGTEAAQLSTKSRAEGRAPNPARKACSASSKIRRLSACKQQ
Sequence of MAP2K6 (human) (P52564 whole entry, looked up): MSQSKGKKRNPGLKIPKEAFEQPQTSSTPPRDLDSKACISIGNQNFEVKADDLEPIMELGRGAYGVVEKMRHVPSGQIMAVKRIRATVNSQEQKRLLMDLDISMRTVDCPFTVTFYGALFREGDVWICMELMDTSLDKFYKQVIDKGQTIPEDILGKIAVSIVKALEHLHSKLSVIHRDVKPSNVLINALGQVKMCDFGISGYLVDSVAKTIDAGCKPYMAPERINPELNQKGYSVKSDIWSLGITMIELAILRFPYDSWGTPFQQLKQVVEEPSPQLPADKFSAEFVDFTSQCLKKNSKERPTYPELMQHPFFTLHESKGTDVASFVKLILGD
Sequence of STK24 (human) (Q9Y6E0 whole entry, looked up): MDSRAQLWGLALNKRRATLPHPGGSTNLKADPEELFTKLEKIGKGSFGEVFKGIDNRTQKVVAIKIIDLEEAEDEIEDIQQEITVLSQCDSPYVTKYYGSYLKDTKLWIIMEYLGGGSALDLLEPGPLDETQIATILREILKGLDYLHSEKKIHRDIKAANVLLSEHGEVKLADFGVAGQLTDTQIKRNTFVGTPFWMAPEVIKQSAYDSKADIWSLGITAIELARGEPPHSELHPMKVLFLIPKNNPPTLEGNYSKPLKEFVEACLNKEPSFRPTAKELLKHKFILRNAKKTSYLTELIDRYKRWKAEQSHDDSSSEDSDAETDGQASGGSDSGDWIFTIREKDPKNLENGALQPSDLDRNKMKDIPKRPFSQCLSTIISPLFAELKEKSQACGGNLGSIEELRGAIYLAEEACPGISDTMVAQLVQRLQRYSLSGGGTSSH
Sequence of CDC2L2 (human) (Q9UQ88 whole entry, looked up): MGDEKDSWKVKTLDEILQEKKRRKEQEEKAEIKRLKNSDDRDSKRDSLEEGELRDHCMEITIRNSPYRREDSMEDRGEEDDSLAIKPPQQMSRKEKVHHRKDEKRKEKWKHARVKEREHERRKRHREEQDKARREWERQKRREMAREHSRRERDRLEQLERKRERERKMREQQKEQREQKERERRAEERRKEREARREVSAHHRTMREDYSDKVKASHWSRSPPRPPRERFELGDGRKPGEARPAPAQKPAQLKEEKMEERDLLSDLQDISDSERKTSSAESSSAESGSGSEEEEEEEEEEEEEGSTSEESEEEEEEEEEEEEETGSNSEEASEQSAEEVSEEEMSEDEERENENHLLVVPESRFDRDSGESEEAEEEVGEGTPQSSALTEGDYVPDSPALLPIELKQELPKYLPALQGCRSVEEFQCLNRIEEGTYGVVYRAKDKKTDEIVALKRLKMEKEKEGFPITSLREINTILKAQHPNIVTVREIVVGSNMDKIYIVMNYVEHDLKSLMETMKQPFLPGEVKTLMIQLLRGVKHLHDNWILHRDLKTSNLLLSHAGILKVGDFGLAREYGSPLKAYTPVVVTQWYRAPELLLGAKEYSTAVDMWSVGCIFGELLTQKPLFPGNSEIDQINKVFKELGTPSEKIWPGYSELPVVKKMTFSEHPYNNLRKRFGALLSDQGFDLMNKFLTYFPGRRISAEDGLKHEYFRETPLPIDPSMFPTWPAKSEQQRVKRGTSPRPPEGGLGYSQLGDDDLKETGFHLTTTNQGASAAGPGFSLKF
Sequence of ERBB4 (human) (Q15303 whole entry, looked up): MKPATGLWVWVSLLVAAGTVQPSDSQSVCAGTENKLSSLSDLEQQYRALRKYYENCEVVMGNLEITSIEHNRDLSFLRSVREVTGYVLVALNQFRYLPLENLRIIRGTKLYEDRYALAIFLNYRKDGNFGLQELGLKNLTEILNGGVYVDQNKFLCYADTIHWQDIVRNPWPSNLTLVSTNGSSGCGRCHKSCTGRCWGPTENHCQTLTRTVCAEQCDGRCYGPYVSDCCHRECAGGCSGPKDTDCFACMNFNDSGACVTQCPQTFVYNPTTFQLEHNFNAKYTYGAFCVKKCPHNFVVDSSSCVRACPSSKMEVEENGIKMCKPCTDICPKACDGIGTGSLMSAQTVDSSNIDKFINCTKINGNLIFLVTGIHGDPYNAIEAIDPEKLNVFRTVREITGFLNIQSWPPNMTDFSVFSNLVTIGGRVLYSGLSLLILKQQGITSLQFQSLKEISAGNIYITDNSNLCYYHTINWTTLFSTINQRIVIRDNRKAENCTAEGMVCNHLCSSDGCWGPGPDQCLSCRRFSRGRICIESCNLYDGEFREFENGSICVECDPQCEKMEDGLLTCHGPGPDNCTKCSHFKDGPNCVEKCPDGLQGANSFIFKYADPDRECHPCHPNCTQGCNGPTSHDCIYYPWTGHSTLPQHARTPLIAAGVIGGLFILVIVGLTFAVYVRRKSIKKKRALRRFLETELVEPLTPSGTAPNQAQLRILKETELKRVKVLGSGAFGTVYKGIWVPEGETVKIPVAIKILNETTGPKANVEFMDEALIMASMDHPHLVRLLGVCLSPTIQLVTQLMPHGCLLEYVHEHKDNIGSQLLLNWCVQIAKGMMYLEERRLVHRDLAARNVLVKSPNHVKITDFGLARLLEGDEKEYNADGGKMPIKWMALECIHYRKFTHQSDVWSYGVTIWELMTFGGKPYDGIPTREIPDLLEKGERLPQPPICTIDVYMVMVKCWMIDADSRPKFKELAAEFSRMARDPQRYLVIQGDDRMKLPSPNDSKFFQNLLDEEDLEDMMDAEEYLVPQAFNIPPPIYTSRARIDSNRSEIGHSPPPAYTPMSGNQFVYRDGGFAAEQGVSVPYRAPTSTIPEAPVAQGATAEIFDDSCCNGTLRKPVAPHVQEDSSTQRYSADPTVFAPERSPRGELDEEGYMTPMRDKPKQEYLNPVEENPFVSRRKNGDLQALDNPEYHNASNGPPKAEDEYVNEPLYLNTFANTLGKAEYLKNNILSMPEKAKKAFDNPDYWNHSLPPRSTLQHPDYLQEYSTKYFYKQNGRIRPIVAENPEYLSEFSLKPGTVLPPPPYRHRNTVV

| SMILES | kinase still bound, per cent of control (ABL2 (human)) | kinase still bound, per cent of control (AKT1 (human)) | kinase still bound, per cent of control (AXL (human)) | kinase still bound, per cent of control (BMPR1B (human)) | kinase still bound, per cent of control (CAMK2A (human)) | kinase still bound, per cent of control (CDC2L2 (human)) | kinase still bound, per cent of control (CDK14 (human)) | kinase still bound, per cent of control (CLK3 (human)) | kinase still bound, per cent of control (CSNK1E (human)) | kinase still bound, per cent of control (DMPK (human)) | kinase still bound, per cent of control (DYRK1B (human)) | kinase still bound, per cent of control (EPHB4 (human)) | kinase still bound, per cent of control (ERBB4 (human)) | kinase still bound, per cent of control (FGFR1 (human)) | kinase still bound, per cent of control (GSK3A (human)) | kinase still bound, per cent of control (MAP2K6 (human)) | kinase still bound, per cent of control (MAPK1 (human)) | kinase still bound, per cent of control (MELK (human)) | kinase still bound, per cent of control (MYLK3 (human)) | kinase still bound, per cent of control (NIM1 (human)) | other results |
| --- | --- | --- | --- | --- | --- | --- | --- | --- | --- | --- | --- | --- | --- | --- | --- | --- | --- | --- | --- | --- | --- |
| Cc1cn(-c2cc(C(=O)Nc3ccc(C)c(NC(=O)c4ccno4)c3)cc(C(F)(F)F)c2)cn1 | 1.8% | 100% | 100% | 100% | 100% | 100% | 100% | 100% | 100% | 100% | 100% | 15% | 100% | 100% | 100% | 100% | 100% | 100% | 100% | 100% | kinase still bound, per cent of control (ACVR2A (human)): 100%; kinase still bound, per cent of control (AKT3 (human)): 100%; kinase still bound, per cent of control (EPHB1 (human)): 21%; kinase still bound, per cent of control (MAP4K5 (human)): 100%; kinase still bound, per cent of control (PAK1 (human)): 100%; kinase still bound, per cent of control (PAK3 (human)): 100%; kinase still bound, per cent of control (PIK3C2G (human)): 100%; kinase still bound, per cent of control (PKMYT1 (human)): 100%; kinase still bound, per cent of control (RAF1 (human)): 6%; kinase still bound, per cent of control [1]: 100%; kinase still bound, per cent of control (RIPK4 (human)): 100%; kinase still bound, per cent of control (SRC (human)): 2.4%; kinase still bound, per cent of control (SRPK3 (human)): 100%; kinase still bound, per cent of control (STK11 (human)): 100%; kinase still bound, per cent of control (STK24 (human)): 100%; kinase still bound, per cent of control (STK25 (human)): 100%; kinase still bound, per cent of control (TNIK (human)): 100%; kinase still bound, per cent of control (ULK2 (human)): 100%; kinase still bound, per cent of control (WEE2 (human)): 100% |
| CCOc1cc(N2CCC(O)CC2)ccc1Nc1ncc2c(n1)N(C)c1ccccc1C(=O)N2C | 100% | 100% | 100% | 100% | 100% | 100% | 100% | 100% | 100% | 100% | 100% | 100% | 100% | 100% | 100% | 100% | 100% | 100% | 100% | 100% | kinase still bound, per cent of control (ACVR2A (human)): 100%; kinase still bound, per cent of control (AKT3 (human)): 100%; kinase still bound, per cent of control (EPHB1 (human)): 100%; kinase still bound, per cent of control (MAP4K5 (human)): 100%; kinase still bound, per cent of control (PAK1 (human)): 100%; kinase still bound, per cent of control (PAK3 (human)): 100%; kinase still bound, per cent of control (PIK3C2G (human)): 100%; kinase still bound, per cent of control (PKMYT1 (human)): 100%; kinase still bound, per cent of control (RAF1 (human)): 100%; kinase still bound, per cent of control [1]: 100%; kinase still bound, per cent of control (RIPK4 (human)): 100%; kinase still bound, per cent of control (SRC (human)): 100%; kinase still bound, per cent of control (SRPK3 (human)): 100%; kinase still bound, per cent of control (STK11 (human)): 100%; kinase still bound, per cent of control (STK24 (human)): 100%; kinase still bound, per cent of control (STK25 (human)): 100%; kinase still bound, per cent of control (TNIK (human)): 100%; kinase still bound, per cent of control (ULK2 (human)): 100%; kinase still bound, per cent of control (WEE2 (human)): 100% |
| CC(=O)c1c(C)c2cnc(Nc3ccc(N4CCNCC4)cn3)nc2n(C2CCCC2)c1=O | 97% | 92% | 16% | 50% | 3.2% | 78% | 5% | 55% | 16% | 80% | 3.2% | 100% | 83% | 66% | 50% | 45% | 73% | 40% | 7.6% | 40% | kinase still bound, per cent of control (DSTYK (human)): 5%; kinase still bound, per cent of control (NEK4 (human)): 20%; kinase still bound, per cent of control (PAK3 (human)): 20%; kinase still bound, per cent of control (PIK3C2G (human)): 20%; kinase still bound, per cent of control (PKMYT1 (human)): 77%; kinase still bound, per cent of control [1]: 65%; kinase still bound, per cent of control (RIPK4 (human)): 79%; kinase still bound, per cent of control (SRC (human)): 93%; kinase still bound, per cent of control (SRPK3 (human)): 23%; kinase still bound, per cent of control (STK11 (human)): 82%; kinase still bound, per cent of control (STK24 (human)): 16%; kinase still bound, per cent of control (STK25 (human)): 34%; kinase still bound, per cent of control (TNIK (human)): 23%; kinase still bound, per cent of control (ULK2 (human)): 0%; kinase still bound, per cent of control (WEE2 (human)): 75% |
